Experimental data reported in US6096930A, “Herbicidal cyclohexane-1,3-dione derivatives and their preparation process” (Korea Research Institute of Chemical Technology, priority 1994, dated 2000).
Where two headings read alike, the source gives them in different places.

Columns and labels:
Test in all cases: Herbicidal activity for paddy test
Assay type in all cases: in vivo
ORYSA = settings: for plant injury at 2 g/ha: 0.002 kg/ha; for plant injury at 8 g/ha: 0.008 kg/ha; for plant injury at 31 g/ha: 0.031 kg/ha; for plant injury at 125 g/ha: 0.125 kg/ha; for plant injury at 500 g/ha: 0.500 kg/ha
Description: (§1) The sterilized sandy loam soil is filled in test pot having a surface area of 348 cm^2 for upland test conditions or 115 cm^2 for paddy test species were planted in furrows.
(§2) The herbicidal activity data were taken visually by percent control, wherein 0 signifies no herbicidal effect and 100 signifies complete kill.

SAGPY = settings: for pest or weed control at 2 g/ha: 0.002 kg/ha; for pest or weed control at 8 g/ha: 0.008 kg/ha; for pest or weed control at 31 g/ha: 0.031 kg/ha; for pest or weed control at 125 g/ha: 0.125 kg/ha; for pest or weed control at 500 g/ha: 0.500 kg/ha
Description: as §1, §2

SCPJU = settings: for pest or weed control at 2 g/ha: 0.002 kg/ha; for pest or weed control at 8 g/ha: 0.008 kg/ha; for pest or weed control at 31 g/ha: 0.031 kg/ha; for pest or weed control at 125 g/ha: 0.125 kg/ha; for pest or weed control at 500 g/ha: 0.500 kg/ha
Description: as §1, §2

ECHOR = settings: for pest or weed control at 2 g/ha: 0.002 kg/ha; for pest or weed control at 8 g/ha: 0.008 kg/ha; for pest or weed control at 31 g/ha: 0.031 kg/ha; for pest or weed control at 125 g/ha: 0.125 kg/ha; for pest or weed control at 500 g/ha: 0.500 kg/ha
Description: as §1, §2

MOOVA = settings: for pest or weed control at 2 g/ha: 0.002 kg/ha; for pest or weed control at 8 g/ha: 0.008 kg/ha; for pest or weed control at 31 g/ha: 0.031 kg/ha; for pest or weed control at 125 g/ha: 0.125 kg/ha; for pest or weed control at 500 g/ha: 0.500 kg/ha
Description: as §1, §2

[1] = 3 Leaf, read-out: Herbicidal activity, ORYSA (3 Leaf)
[2] = seed, read-out: Herbicidal activity, ORYSA (seed)

Row | SMILES | plant injury at 2 g/ha (ORYSA; [1]) [%] | plant injury at 8 g/ha (ORYSA; [1]) [%] | plant injury at 31 g/ha (ORYSA; [1]) [%] | plant injury at 125 g/ha (ORYSA; [1]) [%] | plant injury at 500 g/ha (ORYSA; [1]) [%] | plant injury at 2 g/ha (ORYSA; [2]) [%] | plant injury at 8 g/ha (ORYSA; [2]) [%] | plant injury at 31 g/ha (ORYSA; [2]) [%] | plant injury at 125 g/ha (ORYSA; [2]) [%] | plant injury at 500 g/ha (ORYSA; [2]) [%] | pest or weed control at 2 g/ha (SAGPY) [%] | pest or weed control at 8 g/ha (SAGPY) [%] | pest or weed control at 31 g/ha (SAGPY) [%] | pest or weed control at 125 g/ha (SAGPY) [%] | pest or weed control at 500 g/ha (SAGPY) [%] | pest or weed control at 2 g/ha (SCPJU) [%] | pest or weed control at 8 g/ha (SCPJU) [%] | pest or weed control at 31 g/ha (SCPJU) [%] | pest or weed control at 125 g/ha (SCPJU) [%] | pest or weed control at 500 g/ha (SCPJU) [%] | also measured
1 | CCCC(=NOC)C1=C(O)CC(c2c(C)c(C)c3c(c2Cl)CC(C)(C)C3)CC1=O (stereo not drawn) [Compound 42] | 0 | 0 | 0 | 0 | 0 | 0 | 0 | 20 | 100 | 100 | 0 | 0 | 0 | 0 | 0 | 0 | 0 | 0 | 0 | 0 | pest or weed control at 2 g/ha (ECHOR): 0%; pest or weed control at 8 g/ha (ECHOR): 0%; pest or weed control at 31 g/ha (ECHOR): 80%; pest or weed control at 125 g/ha (ECHOR): 100%; pest or weed control at 500 g/ha (ECHOR): 100%; pest or weed control at 2 g/ha (MOOVA): 0%; pest or weed control at 8 g/ha (MOOVA): 0%; pest or weed control at 31 g/ha (MOOVA): 0%; pest or weed control at 125 g/ha (MOOVA): 0%; pest or weed control at 500 g/ha (MOOVA): 0%
2 | C=CCON=C(CC)C1=C(O)CC(c2c(C)c(C)c3c(c2C)CC(C)(CC)C3)CC1=O (stereo not drawn) [Compound 13, 5-(2-Ethyl-2,4,5,7-tetramethylindan-6-yl)-2-[1-(allyloxyimino)propyl]-3-hydroxycyclohex-2-en-1-one] | 0 | 0 | 0 | 0 | 30 | 0 | 30 | 50 | 100 | 100 | 0 | 0 | 0 | 30 | 30 | 0 | 0 | 0 | 0 | 0 | pest or weed control at 2 g/ha (ECHOR): 30%; pest or weed control at 8 g/ha (ECHOR): 50%; pest or weed control at 31 g/ha (ECHOR): 100%; pest or weed control at 125 g/ha (ECHOR): 100%; pest or weed control at 500 g/ha (ECHOR): 100%; pest or weed control at 2 g/ha (MOOVA): 0%; pest or weed control at 8 g/ha (MOOVA): 0%; pest or weed control at 31 g/ha (MOOVA): 0%; pest or weed control at 125 g/ha (MOOVA): 0%; pest or weed control at 500 g/ha (MOOVA): 30%
3 | CCON=C(CC)C1=C(O)CC(c2c(C)c(C)c3c(c2C)CC(C)(CC)C3)CC1=O (stereo not drawn) [Compound 12] | 0 | 0 | 0 | 0 | 40 | 0 | 0 | 30 | 100 | 100 | 0 | 0 | 0 | 0 | 30 | 0 | 0 | 0 | 0 | 60 | pest or weed control at 2 g/ha (ECHOR): 30%; pest or weed control at 8 g/ha (ECHOR): 70%; pest or weed control at 31 g/ha (ECHOR): 100%; pest or weed control at 125 g/ha (ECHOR): 100%; pest or weed control at 500 g/ha (ECHOR): 100%; pest or weed control at 2 g/ha (MOOVA): 0%; pest or weed control at 8 g/ha (MOOVA): 0%; pest or weed control at 31 g/ha (MOOVA): 0%; pest or weed control at 125 g/ha (MOOVA): 0%; pest or weed control at 500 g/ha (MOOVA): 50%
